Assay results: patent US12486269B2 (Aconcagua Bio, Inc., priority 2024, dated 2025)

Tests used:
[1] = molecular target: T1, human calcitonin receptor (CTR) (Homo sapiens, UniProt P30988); experiment: Calcitonin Receptor (CTR) cAMP Assay; type: cell-based; conditions: COS7-human CTR Clone #2 stable cell line, cAMP dynamic 2 kit, 30 min; read-out: Calcitonin Receptor cAMP Stimulation Activity: EC50
T1 construct: expressed in transfected cells; host or cells: COS-7 (COS7-human CTR Clone #2)
T1 sequence (P30988 25-474): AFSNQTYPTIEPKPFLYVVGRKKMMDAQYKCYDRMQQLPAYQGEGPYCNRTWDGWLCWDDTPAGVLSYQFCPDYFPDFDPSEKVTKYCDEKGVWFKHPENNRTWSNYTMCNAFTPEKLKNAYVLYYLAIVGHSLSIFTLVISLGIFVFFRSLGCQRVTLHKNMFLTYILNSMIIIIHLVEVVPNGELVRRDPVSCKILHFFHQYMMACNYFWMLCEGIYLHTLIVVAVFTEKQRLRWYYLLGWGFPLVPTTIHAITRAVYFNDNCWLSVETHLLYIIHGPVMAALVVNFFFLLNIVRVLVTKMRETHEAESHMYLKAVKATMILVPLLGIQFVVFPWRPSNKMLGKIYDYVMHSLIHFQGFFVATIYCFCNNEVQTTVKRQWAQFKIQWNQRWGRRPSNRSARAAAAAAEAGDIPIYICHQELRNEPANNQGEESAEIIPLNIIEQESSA
Method: (§1) After incubation, the cAMP assay signal was generated using cAMP dynamic 2 kit (Revvity, Cat #62AM4PEC). 10 μL cAMP-d2 working solution was added to each well, followed by 10 μL Anti-cAMP antibody-cryptate working solution which was added to each well using CERTUS FLEX LIQUID […]. The samples were then incubated at room temperature for 1 hour protected from light. the fluorescence was read at 665 and 615 nm with Reader PerkinElmer EnVision 2105. % Activity=100−(mean RLU of test sample−mean RLU of positive control)/(mean RLU of vehicle control−mean RLU of positive control)×100 Calcitonin Receptor (CTR) cAMP Assay
The calcitonin receptor (CTR) belongs to the subfamily of GPCRs known as the secretin or ‘B’ family of GPCRs. Like other class B1 GPCRs, the CT receptor family is canonically coupled to Gs-mediated cAMP production, and measurement of cAMP accumulation has been the primary assay used to determine peptide selectivity and potency.
(§2) To optimize functional activity directed toward Gαs coupling, COS-7 cells were stably transfected with human calcitonin receptor (CTR) to create COS7-human CTR Clone #2 stable cell line. 100×concentration of compound working solutions were prepared with 4-fold serial dilution in 384-well Echo LDV plate (Labcyte, Cat #LP-0200-BC). 200 nL/well 100×concentration of compound working solutions were moved to 384-well white microplate (Perkin Elmer, Cat #6007680) using Labcyte ECHO550. 1×10^5 cells/mL COS7-human CTR Clone #2 cell suspensions prepared with assay buffer [HBSS containing 20 mM HEPES (Gibco, Cat #15630-080), 0.5 mM IBMX (Sigma, Cat #15879) and 0.1% Casein (Sigma, Cat #C4765)], 20 μL cell suspensions were added to each well of previous generated assay plate which already contains 200 nL compound at 100×concentration using ThermoFisher Multidrop Combi (2000 cells/well). Seal the plate and incubate at 37° C. with 5% CO2 for 30 min.
as §1, with “control)×100” for “control)×100 Calcitonin Receptor (CTR) cAMP Assay”

[2] = molecular target: T2, COS-7/AMY3 (human calcitonin receptor (CTR) and RAMP3) (Homo sapiens, UniProt O60896+P30988); experiment: Amylin Receptor cAMP Assay II; type: cell-based; conditions: values marked **: Amylin Receptor cAMP Assay II; COS-7/AMY3 cells, cAMP dynamic 2 kit, 30 min; read-out: Amylin Receptor cAMP Stimulation Activity: EC50
T2 construct: expressed in transfected cells; host or cells: COS-7
Text: AMYRs are heterodimers of the class B calcitonin (CT) G-protein-coupled receptor (CTR) and receptor activity-modifying proteins (RAMPs). All three RAMPs can interact with the CTR and form AMY1, AMY2, AMY3 with RAMP1, RAMP2 and RAMP3, respectively. Like other class B1 GPCRs, the CT receptor family is canonically coupled to Gs-mediated cAMP production, and measurement of cAMP accumulation has been the primary assay used to determine peptide selectivity and potency.
as §2, with “and RAMP3, simultaneously.” for “to create COS7-human CTR Clone #2 stable cell line.”, “COS-7/AMY3” for “COS7-human CTR Clone #2”
as §1

T2 sequence (O60896 24-148, one chain of several): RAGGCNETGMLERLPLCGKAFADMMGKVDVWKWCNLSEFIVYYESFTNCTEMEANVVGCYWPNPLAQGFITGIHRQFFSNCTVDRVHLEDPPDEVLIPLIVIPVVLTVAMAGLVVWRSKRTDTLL

O=C(NCc1ccc(F)c(F)c1)c1ccc(-c2c3c(nc(CCc4ccc(F)cc4)c2-c2noc(=O)[nH]2)[C@@H]2CCCN2C3=O)s1 [Compound 101] was tested. Which EC50 [1] did it give?
The EC50 was 12.9 nM.

What about the EC50 [2] of the same compound?
Its EC50 is 101 nM.

Which results are given for COc1cccc2c1CC[C@H]2Nc1nccc2cc(-c3c4c(nc(CCc5ccc(F)cc5)c3-c3n[nH]c(=O)o3)[C@@H]3CCCN3C4=O)sc12 [Compound 102, 5-((S)-2-(4-fluorophenethyl)-4-(7-(((R)-4-methoxy-2,3-dihydro-1H-inden-1-yl)amino)thieno[2,3-c]pyridin-2-yl)-5-oxo-7,8,9,9a-tetrahydro-5H-pyrido[2,3-a]pyrrolizin-3-yl)-1,3,4-oxadiazol-2(3H)-one]?
EC50 [1]: 0.8 nM; EC50 [2]: 12.2 nM

Which results are given for O=C(NCc1ccc(F)c(F)c1)c1ccc(-c2c3c(nc(CCc4ccc(F)cc4)c2-c2cc(=O)[nH]o2)[C@@H]2CCCN2C3=O)s1 [Compound 103, (S)—N-(3,4-difluorobenzyl)-5-(2-(4-fluorophenethyl)-5-oxo-3-(3-oxo-2,3-dihydroisoxazol-5-yl)-7,8,9,9a-tetrahydro-5H-pyrido[2,3-a]pyrrolizin-4-yl)thiophene-2-carboxamide]?
EC50 [1]: 21.5 nM; EC50 [2]: 273 nM

Which EC50 [1] does the source give for COc1cccc2c1CC[C@H]2Nc1nccc2cc(-c3c4c(nc(CCc5ccc(F)cc5)c3-c3noc(=O)[nH]3)[C@@H]3CCCN3C4=O)sc12 [Compound 104] here?
The EC50 was 0.926 nM.

What about the EC50 [2] of the same compound?
Its EC50 is 25.5 nM.

What does the source list for CN(Cc1ccc(F)c(F)c1)c1nccc2cc(-c3c4c(nc(CCc5ccc(F)cc5)c3-c3noc(=O)[nH]3)[C@@H]3CCCN3C4=O)sc12 [Compound 107, (S)-3-(4-(7-((3,4-difluorobenzyl)(methyl)amino)thieno[2,3-c]pyridin-2-yl)-2-(4-fluorophenethyl)-5-oxo-7,8,9,9a-tetrahydro-5H-pyrido[2,3-a]pyrrolizin-3-yl)-1,2,4-oxadiazol-5(4H)-one]?
EC50 [1]: 9.03 nM; EC50 [2]: 34.4 nM

Which EC50 [1] does the source give for O=C1c2c(nc(CCc3ccc(F)cc3)c(-c3noc(=O)[nH]3)c2-c2ccc3c(NCc4ccc(F)c(F)c4)nccc3c2)[C@@H]2CCCN12 [Compound 111] here?
The EC50 was 205 nM.

What about the EC50 [2] of the same compound?
Its EC50 is 401 nM.

How did the EC50 [1] turn out when O=C1c2c(nc(CCc3ccc(F)cc3)c(-c3noc(=O)[nH]3)c2-c2ccc3c(c2)CC[C@H]3OCc2ccc(F)c(F)c2)[C@@H]2CCCN12 [Compound 113] was run?
Its EC50 is 271 nM.

What about the EC50 [2] of the same compound?
Its EC50 is 1120 nM.

With O=C1c2c(nc(CCc3ccc(F)cc3)c(-c3noc(=O)[nH]3)c2-c2ccc3c(c2)CCCN3CCc2ccc(F)c(F)c2)[C@@H]2CCCN12 [Compound 114] as the compound, how does the EC50 [1] read?
Its EC50 is 396 nM.

What about the EC50 [2] of the same compound?
Its EC50 is 425 nM.

How did the EC50 [1] turn out when CN(Cc1ccc(F)c(F)c1)C(=O)c1ccc(-c2c3c(nc(CCc4ccc(F)cc4)c2-c2noc(=O)[nH]2)[C@@H]2CCCN2C3=O)s1 [Compound 115] was run?
The EC50 was 28.8 nM.

And the EC50 [2]?
The EC50 was 566 nM.

O=C(c1ccc(-c2c3c(nc(CCc4ccc(F)cc4)c2-c2noc(=O)[nH]2)[C@@H]2CCCN2C3=O)s1)N1CCCC1c1ccc(F)c(F)c1 (stereo partly shown) [Compound 116] was tested. Which EC50 [1] did it give?
The EC50 was 25.6 nM.

And the EC50 [2]?
Its EC50 is 253 nM.

What does the source list for O=C1c2c(nc(CCc3ccc(F)cc3)c(-c3noc(=O)[nH]3)c2-c2cc3ccnc(N4CCCC4c4ccc(F)c(F)c4)c3s2)[C@@H]2CCCN12 (stereo partly shown) [Compound 117]?
EC50 [1]: 53.5 nM; EC50 [2]: 113 nM

With O=C(N[C@@H]1CCc2cc(F)c(F)cc21)c1ccc(-c2c3c(nc(CCc4ccc(F)cc4)c2-c2noc(=O)[nH]2)[C@@H]2CCCN2C3=O)s1 [Compound 120] as the compound, how does the EC50 [1] read?
Its EC50 is 1.24 nM.

And the EC50 [2]?
The EC50 was 23.6 nM.

Which EC50 [1] does the source give for COc1cccc2c1CC[C@H]2Nc1nccc2cc(-c3c4c(nc(CCc5ccc(C(F)(F)F)cc5)c3-c3noc(=O)[nH]3)[C@@H]3CCCN3C4=O)sc12 [Compound 123] here?
Its EC50 is 1.19 nM.

What about the EC50 [2] of the same compound?
Its EC50 is 42.9 nM.

With COc1cccc2c1CC[C@H]2Nc1nccc2cc(-c3c4c(nc(CCc5cccc(C(F)(F)F)c5)c3-c3noc(=O)[nH]3)[C@@H]3CCCN3C4=O)sc12 [Compound 124, 3-((S)-4-(7-(((R)-4-methoxy-2,3-dihydro-1H-inden-1-yl)amino)thieno[2,3-c]pyridin-2-yl)-5-oxo-2-(3-(trifluoromethyl)phenethyl)-7,8,9,9a-tetrahydro-5H-pyrido[2,3-a]pyrrolizin-3-yl)-1,2,4-oxadiazol-5(4H)-one] as the compound, how does the EC50 [1] read?
The EC50 was 0.628 nM.

What about the EC50 [2] of the same compound?
Its EC50 is 18.2 nM.

For COc1cccc2c1CC[C@H]2Nc1nccc2cc(-c3c4c(nc(CCc5ccccc5C(F)(F)F)c3-c3noc(=O)[nH]3)[C@@H]3CCCN3C4=O)sc12 [Compound 125, 3-((S)-4-(7-(((R)-4-methoxy-2,3-dihydro-1H-inden-1-yl)amino)thieno[2,3-c]pyridin-2-yl)-5-oxo-2-(2-(trifluoromethyl)phenethyl)-7,8,9,9a-tetrahydro-5H-pyrido[2,3-a]pyrrolizin-3-yl)-1,2,4-oxadiazol-5(4H)-one], which EC50 [1] is on record?
Its EC50 is 0.711 nM.

What about the EC50 [2] of the same compound?
The EC50 was 50.5 nM.

Which results are given for COc1cccc2c1CC[C@H]2Nc1nccc2cc(-c3c4c(nc(CCc5ccc(C6CC6)cc5)c3-c3noc(=O)[nH]3)[C@@H]3CCCN3C4=O)sc12 [Compound 127, 3-((S)-2-(4-cyclopropylphenethyl)-4-(7-(((R)-4-methoxy-2,3-dihydro-1H-inden-1-yl)amino)thieno[2,3-c]pyridin-2-yl)-5-oxo-7,8,9,9a-tetrahydro-5H-pyrido[2,3-a]pyrrolizin-3-yl)-1,2,4-oxadiazol-5(4H)-one]?
EC50 [1]: 4.36 nM; EC50 [2]: 143 nM

With COc1cccc2c1CC[C@H]2Nc1nccc2cc(-c3c4c(nc(CC5CCc6cc(F)ccc65)c3-c3noc(=O)[nH]3)[C@@H]3CCCN3C4=O)sc12 (stereo partly shown) [Compound 128] as the compound, how does the EC50 [1] read?
The EC50 was 1.13 nM.

What about the EC50 [2] of the same compound?
The EC50 was 21.9 nM.

Which EC50 [1] does the source give for O=C1c2c(nc(CCc3ccc(F)cc3)c(-c3noc(=O)[nH]3)c2-c2cc3ccnc(NCc4ccc(F)c(F)c4)c3s2)[C@@H]2CCCN12 [Compound 130] here?
Its EC50 is 3.06 nM.

What about the EC50 [2] of the same compound?
Its EC50 is 38.3 nM.

What does the source list for O=C1c2c(nc(CCc3ccc(F)cc3)c(-c3noc(=O)[nH]3)c2-c2cc3ccnc(OCc4ccc(F)c(F)c4)c3s2)[C@@H]2CCCN12 [Compound 133, (S)-3-(4-(7-((3,4-difluorobenzyl)oxy)thieno[2,3-c]pyridin-2-yl)-2-(4-fluorophenethyl)-5-oxo-7,8,9,9a-tetrahydro-5H-pyrido[2,3-a]pyrrolizin-3-yl)-1,2,4-oxadiazol-5(4H)-one]?
EC50 [1]: 4.42 nM; EC50 [2]: 90.7 nM

Which results are given for O=C1c2c(nc(CCc3ccc(F)cc3)c(-c3noc(=O)[nH]3)c2-c2cc3ccnc(N[C@@H]4CCCc5ccccc54)c3s2)[C@@H]2CCCN12 [Compound 139]?
EC50 [1]: 2.7 nM; EC50 [2]: 41.5 nM
